Where “and” joins values, the source holds several entries; their conditions need not be identical. Equal entries are not always repeated.
Key:
[1] = system: acute tendon injury; assay: Time until positive clinical response (disappearance of swelling, heat and pain on palpation) after medication institution; type: in vivo, horse; settings: for Time until Clinical Response: acute tendon injury
Method: An acute tendon injury in a horse, is also known as a “Bowed Tendon”. This injury is clinically characterized by visible swelling of the tendon, heat to touch, as well as pain on palpation of the tendon. Clinical improvement of such a tendon injury is manifest by the diminution and ultimate absence of any swelling, heat and pain on palpation. The trials detailed above were carried out using the “polypaste” (multiple medications) approach to tendon injury in horses using “Tendon Guard Intense”. Three medications were used in initial tendon injury treatment: a proinflammatory cytokine inhibitor (Doxycycline 5 gm BD), an antioxidant or catechin (Green Tea extract/EGCG 5 gm BD) and an anti-inflammatory (Ibuprofen 5 gm BD). Throughout the testing process, a cohort of horses, were unable to take all of the individual ingredients planned, due to a number of reasons: The individual medication contraindications outlined, led to a cohort of horses in initial testing who consequently only received a single drug or a combination of two drugs (not three) to treat their acute tendon injury. These horses received either: All horses were carefully examined daily following acute injury and after institution of medication, by either an experienced veterinarian or trainer, for the presence of all of swelling, heat and pain on palpation of the tendon. A positive clinical response to treatment was defined as the absence of all three of swelling, heat and pain on palpation. The time from medication institution until disappearance of all three signs of swelling, heat and pain on palpation was recorded, as this was deemed the ultimate marker of clinical improvement of the tendon injury. Horses were immediately put back into light exercise once these acute signs had disappeared.

[2] = system: tendon injury; assay: Additional studies with alternative combinations: resolution of pain and swelling; type: in vivo, horse; settings: dose of 450 mg/day
Method: Additional studies have been performed with alternative anti-inflammatories and alternative NSAIDs. It is desirable to avoid using ibuprofen. The reason is ibuprofen stores in tissue and causes positive drug tests in racing horses. Copper indomethacin (CuIndomethacin) has been used as the anti-inflammatory and/or NSAID.
One of the advantages of CuIndomethacin is that it can be used in lower dosages. A dose of 200 mg (⅕ gram) has been used. It is hypothesized that a therapeutic effect may be achieved with 50 mg or ¼ of the usual dose or less by way of example.
In some embodiments, it is desirable to avoid using Doxycycline. The reason for this is that there is a worldwide push not to use antibiotics for purposes which are not infection related. For this reason, in som embodiments, curcumin, which is also a proinflammatory cytokine inhibitor, has been used at a dose of 450 mg/day with great success.

`C[C@H]1c2cccc(O)c2C(=O)C2=C(O)[C@]3(O)C(=O)C(C(N)=O)=C(O)[C@@H](N(C)C)[C@@H]3[C@@H](O)[C@@H]21` [Doxycycline] was tested, and the “Time until Clinical Response” value ([1]; individual horses (6), Doxycycline alone 5 gms BD) was 27 days (2×) and 21 days (2×) and 24 days and 28 days and the “Mean time until a positive clinical response to treatment” value ([1]; mean of 6 horses, Doxycycline alone 5 gms BD) was “(24.66 days)”.

With `O=C(O[C@@H]1Cc2c(O)cc(O)cc2O[C@@H]1c1cc(O)c(O)c(O)c1)c1cc(O)c(O)c(O)c1` [EGCG, epigallocatechin gallate] the “Time until Clinical Response” value ([1]; individual horses (5), EGCG alone 5 gms BD) was 24 days and 21 days (2×) and 28 days and 31 days and the “Mean time until a positive clinical response to treatment” value ([1]; mean of 5 horses, EGCG alone 5 gms BD) was “(25 days)”.

`CC(C)Cc1ccc(C(C)C(=O)O)cc1` (stereo not shown) [Ibuprofen] was tested, and the “Time until Clinical Response” value ([1]; individual horses (8), Ibuprofen alone 5 gm BD) was 20 days and 25 days and 19 days (2×) and 18 days and 23 days and 27 days and 24 days and the “Mean time until a positive clinical response to treatment” value ([1]; mean of 8 horses, Ibuprofen alone 5 gm BD) was “(21.9 days)”.

In the case of `COc1cc(/C=C/C(=O)CC(=O)/C=C/c2ccc(O)c(OC)c2)ccc1O` [curcumin], the “Outcome of use as proinflammatory cytokine inhibitor in place of doxycycline” value [2] is reported as “great success”.

Source: patent US11000533B2, “Connective tissue monitoring, compositions for connective tissue treatment and methods for treating connective tissue” (priority 2011, dated 2021)
